Assays:
Melanocortin receptor 4 = Melanocortin receptor 4 (Mus musculus, UniProt P56450); experiment: Agonist activity on mouse melanocortin 4 receptor (mMC4R) stably expressed in […] cells; type: functional, cell-based
[1] = target: Melanocyte-stimulating hormone receptor (Mus musculus, UniProt Q01727); experiment: Agonist activity on mouse melanocortin 1 receptor (mMC1R) stably expressed in HEK cells; type: functional, cell-based, HEK293
Melanocortin receptor 5 = Melanocortin receptor 5 (Mus musculus, UniProt P41149); experiment: Agonist activity on mouse melanocortin 5 receptor (mMC5R) stably expressed in […] cells; type: functional, cell-based
Melanocortin receptor 5, sequence (P41149 whole entry): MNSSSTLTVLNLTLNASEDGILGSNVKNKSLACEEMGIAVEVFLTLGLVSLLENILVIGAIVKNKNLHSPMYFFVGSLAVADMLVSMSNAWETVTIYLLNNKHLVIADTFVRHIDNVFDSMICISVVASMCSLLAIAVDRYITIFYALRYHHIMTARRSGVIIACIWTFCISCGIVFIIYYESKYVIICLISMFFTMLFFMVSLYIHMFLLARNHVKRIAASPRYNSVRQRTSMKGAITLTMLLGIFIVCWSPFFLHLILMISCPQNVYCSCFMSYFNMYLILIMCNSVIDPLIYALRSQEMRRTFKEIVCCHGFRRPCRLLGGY

Melanocortin receptor 3 = Melanocortin receptor 3 (Mus musculus, UniProt P33033); experiment: Agonist activity on mouse Melanocortin 3 receptor (mMC3R) stably expressed in HEK cells; type: functional, cell-based, HEK293
Melanocortin receptor 3, sequence (P33033 whole entry): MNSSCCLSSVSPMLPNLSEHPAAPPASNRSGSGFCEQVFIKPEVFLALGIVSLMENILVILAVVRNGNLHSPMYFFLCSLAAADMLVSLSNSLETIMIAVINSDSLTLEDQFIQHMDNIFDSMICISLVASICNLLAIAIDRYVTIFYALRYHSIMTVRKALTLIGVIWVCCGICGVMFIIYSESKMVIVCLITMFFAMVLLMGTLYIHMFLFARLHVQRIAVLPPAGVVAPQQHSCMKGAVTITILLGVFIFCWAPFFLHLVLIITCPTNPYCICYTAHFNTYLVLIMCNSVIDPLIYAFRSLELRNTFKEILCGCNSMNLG

Melanocortin receptor 4, sequence (P56450 whole entry): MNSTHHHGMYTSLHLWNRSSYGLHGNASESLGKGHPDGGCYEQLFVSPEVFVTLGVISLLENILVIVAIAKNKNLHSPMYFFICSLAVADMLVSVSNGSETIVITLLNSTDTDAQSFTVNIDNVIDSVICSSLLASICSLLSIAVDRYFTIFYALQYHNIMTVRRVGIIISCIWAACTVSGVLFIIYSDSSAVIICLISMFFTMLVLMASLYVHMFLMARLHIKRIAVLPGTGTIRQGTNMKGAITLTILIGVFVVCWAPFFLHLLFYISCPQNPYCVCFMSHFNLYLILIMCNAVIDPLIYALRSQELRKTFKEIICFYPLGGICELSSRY
Melanocyte-stimulating hormone receptor, sequence (Q01727 whole entry): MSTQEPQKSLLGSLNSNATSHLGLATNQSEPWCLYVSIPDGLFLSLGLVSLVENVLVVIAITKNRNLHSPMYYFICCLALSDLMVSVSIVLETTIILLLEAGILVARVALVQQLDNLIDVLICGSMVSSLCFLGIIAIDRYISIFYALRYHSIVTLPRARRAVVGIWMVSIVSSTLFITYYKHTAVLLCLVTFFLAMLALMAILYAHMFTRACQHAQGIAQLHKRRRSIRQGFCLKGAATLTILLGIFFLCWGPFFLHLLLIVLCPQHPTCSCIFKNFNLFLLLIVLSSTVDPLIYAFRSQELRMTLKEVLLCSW

Row | EC50 (Melanocortin receptor 4) [µM] | EC50 [1] [µM] | EC50 (Melanocortin receptor 5) [µM] | EC50 (Melanocortin receptor 3) [µM] | Structure (SMILES)
1 | > 100 | 20.5 | 14.4 | > 100 | NCCCCNC(=O)[C@H](Cc1ccc(OCc2ccccc2)cc1)NC(=O)NCc1ccccc1
2 | 0.4 | 0.4 | 4.9 | 10.7 | NCc1ccc(NC(=O)[C@H](Cc2c[nH]c3ccccc23)NC(=O)NCc2ccccc2)cc1
3 | > 100 | > 100 | > 100 | > 100 | NCCCCNC(=O)[C@H](CCc1ccccc1)NC(=O)NCc1ccccc1
4 | 100 | 20 | 28.9 | 100 | NCCCCNC(=O)[C@H](Cc1c[nH]c2ccccc12)NC(=O)NN1CCC(Cc2ccccc2)CC1
5 | 2.8 | 5 | 8.2 | 4.4 | NCCCCNC(=O)[C@H](Cc1c[nH]c2ccccc12)NC(=O)NC1CCN(Cc2ccccc2)CC1
6 | > 100 | 5.2 | 8.2 | 4.4 | CC1CCN(CNC(=O)[C@H](Cc2c[nH]c3ccccc23)NC(=O)NCc2ccccc2)CC1
7 | > 100 | > 100 | > 100 | > 100 | NCCCCNC(=O)[C@H](Cc1c[nH]c2ccccc12)NC(=O)NCCc1ccccc1
8 | 23.7 | 55 | 30.5 | > 100 | NCCCCNC(=O)[C@H](Cc1c[nH]c2ccccc12)NC(=O)NCc1ccccc1
9 | > 100 | 28 | > 100 | > 100 | Cc1cccc(CNC(=O)[C@H](Cc2c[nH]c3ccccc23)NC(=O)NCc2ccccc2)c1
10 | 23.7 | 42.4 | 32.8 | 100 | NCCCCNC(=O)[C@@H](Cc1c[nH]c2ccccc12)NC(=O)NCc1ccccc1
11 | > 100 | 51.2 | 39.9 | > 100 | NCCCNC(=O)[C@H](Cc1c[nH]c2ccccc12)NC(=O)NCc1ccccc1
12 | 3.4 | 7.9 | 4.9 | 1.7 | NCCCCNC(=O)[C@H](Cc1c[nH]c2ccccc12)NC(=O)NN1CCc2ccccc2C1
13 | > 100 | 14.8 | 20 | > 100 | NCCCCCNC(=O)[C@H](Cc1c[nH]c2ccccc12)NC(=O)NCc1ccccc1
14 | > 100 | 22.3 | > 100 | > 100 | NCCCCCCNC(=O)[C@H](Cc1c[nH]c2ccccc12)NC(=O)NCc1ccccc1

From ChEMBL document CHEMBL1136069, “Urea small molecule agonists on mouse melanocortin receptors” (Bioorg Med Chem Lett, 2003)
